Measured values: patent US20250154127A1, “BICYCLIC HETEROARYL COMPOUNDS AND USES THEREOF” (ETERN BIOPHARMA (SHANGHAI) CO., LTD., priority 2022, published 2025)

Assays:
MSTO-211H cells = test: Proliferation Assay (CellTiter-Glo Luminescent Cell Viability Assay); assay type: cell-based; conditions: Homo sapiens, 96 hours treatment
How it was run: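 MSTO-211H cells, 1,500/well in RPMI 1640 with 10% FBS, plated overnight, then treated 96 h with 9-point 3-fold compound series in duplicate (DMSO below 0.5%). Viability by CellTiter-Glo luminescence; inhibition relative to DMSO wells, IC50 by four-parameter fit.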

[1] = target: TEAD1(210-426) binding to YAP(50-100) (Homo sapiens, UniProt P28347); test: TR-FRET Assay for TEAD1(210-426) Binding to YAP(50-100); conditions: His-TEAD 10 nM, YAP-Biotin peptide 50 nM
Sequence of TEAD1(210-426) binding to YAP(50-100) (P28347 209-426): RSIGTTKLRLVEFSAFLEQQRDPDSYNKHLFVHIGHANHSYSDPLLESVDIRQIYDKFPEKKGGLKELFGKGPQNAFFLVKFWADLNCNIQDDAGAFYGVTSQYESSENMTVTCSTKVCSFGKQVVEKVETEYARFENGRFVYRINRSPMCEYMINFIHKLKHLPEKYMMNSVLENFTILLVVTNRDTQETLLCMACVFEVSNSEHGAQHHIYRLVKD
How it was run: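 10 nM His-TEAD1 preincubated 30 min at room temperature with compound (3-fold dilutions, 12 points, 1% DMSO), then 50 nM biotin-YAP peptide added.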

Row | Structure (SMILES) | IC50 [1] | IC50 (MSTO-211H cells)
1 | COCCNc1ccnc(Cn2ccc(-c3nn(-c4ccc(C(F)(F)F)cc4)c4ncccc34)cc2=O)n1 [Compound 76, 1-((4-((2-methoxyethyl)amino)pyrimidin-2-yl)methyl)-4-(1-(4-(trifluoromethyl)phenyl)-1H-pyrazolo[3,4-b]pyridin-3-yl)pyridin-2(1H)-one] | ≤ 0.1 µM | ≤ 1 µM
2 | COCCNc1ccnc(Cn2ccc(-c3nn(-c4ccc(C(F)(F)F)cc4)c4ccccc34)cc2=O)n1 [Compound 78, 1-((4-((2-methoxyethyl)amino)pyrimidin-2-yl)methyl)-4-(1-(4-(trifluoromethyl)phenyl)-1H-indazol-3-yl)pyridin-2(1H)-one] | ≤ 0.1 µM | ≤ 1 µM
3 | COc1ccnc(Cn2ccc(-c3cn(-c4ccc(C(F)(F)F)cc4)c4ncccc34)cc2=O)n1 [Compound 80, 1-((4-methoxypyrimidin-2-yl)methyl)-4-(1-(4-(trifluoromethyl)phenyl)-1 H-pyrrolo[2,3-b]pyridin-3-yl)pyridin-2(1H)-one] | ≤ 0.1 µM | ≤ 1 µM
4 | O=c1cc(-c2nn(-c3ccc(C(F)(F)F)cc3)c3ccccc23)ccn1Cc1nccc(OCCO)n1 [Compound 81, 1-((4-(2-hydroxyethoxy)pyrimidin-2-yl)methyl)-4-(1-(4-(trifluoromethyl)phenyl)-1H-indazol-3-yl)pyridin-2(1H)-one] | ≤ 0.1 µM | ≤ 1 µM
5 | COCCOc1nccc(Cn2ccc(-c3nn(-c4ccc(C(F)(F)F)cc4)c4ccccc34)cc2=O)n1 [Compound 82, 1-((2-(2-methoxyethoxy)pyrimidin-4-yl)methyl)-4-(1-(4-(trifluoromethyl)phenyl)-1H-indazol-3-yl)pyridin-2(1H)-one] | ≤ 0.1 µM | ≤ 1 µM
6 | COc1cccc(Cn2ccc(-c3nn(-c4ccc(C(F)(F)F)cc4)c4ccccc34)cc2=O)n1 [Compound 83, 1-((6-methoxypyridin-2-yl)methyl)-4-(1-(4-(trifluoromethyl)phenyl)-1 H-indazol-3-yl)pyridin-2(1H)-one] | ≤ 0.1 µM | ≤ 1 µM
7 | O=c1cc(-c2nn(-c3ccc(C(F)(F)F)cc3)c3ccccc23)ccn1Cc1nccc(N2CCOCC2)n1 [Compound 84, 1-((4-morpholinopyrimidin-2-yl)methyl)-4-(1-(4-(trifluoromethyl)phenyl)-1H-indazol-3-yl)pyridin-2(1H)-one] | ≤ 0.1 µM | ≤ 1 µM
8 | O=c1cc(-c2nn(-c3ccc(C(F)(F)F)cc3)c3ccccc23)ccn1Cc1nccc(N2CC(O)C2)n1 [Compound 85, 1-((4-(3-hydroxyazetidin-1-yl)pyrimidin-2-yl)methyl)-4-(1-(4-(trifluoromethyl)phenyl)-1H-indazol-3-yl)pyridin-2(1H)-one] | ≤ 0.1 µM | ≤ 1 µM
9 | O=c1cc(-c2nn(-c3ccc(C(F)(F)F)cc3)c3ccccc23)ccn1Cc1nccc(N2CCC(O)CC2)n1 [Compound 86, 1-((4-(4-hydroxypiperidin-1-yl)pyrimidin-2-yl)methyl)-4-(1-(4-(trifluoromethyl)phenyl)-1H-indazol-3-yl)pyridin-2(1H)-one] | ≤ 0.1 µM | ≤ 1 µM
10 | O=c1cc(-c2nn(-c3ccc(C(F)(F)F)cc3)c3ccccc23)ccn1Cc1nccc(N2CC3(COC3)C2)n1 [Compound 87, 1-((4-(2-oxa-6-azaspiro[3.3]heptan-6-yl)pyrimidin-2-yl)methyl)-4-(1-(4-(trifluoromethyl)phenyl)-1H-indazol-3-yl)pyridin-2(1H)-one] | ≤ 0.1 µM | ≤ 1 µM
11 | O=c1cc(-c2nn(-c3ccc(C(F)(F)F)cc3)c3ncccc23)ccn1Cc1cccnc1 [Compound 88, 1-(pyridin-3-ylmethyl)-4-(1-(4-(trifluoromethyl)phenyl)-1H-pyrazolo[3,4-b]pyridin-3-yl)pyridin-2(1H)-one] | ≤ 0.1 µM | ≤ 1 µM
12 | O=c1cc(-c2nn(-c3ccc(C(F)(F)F)cc3)c3ccccc23)ccn1Cc1cccc(Cl)n1 [Compound 89, 1-((6-chloropyridin-2-yl)methyl)-4-(1-(4-(trifluoromethyl)phenyl)-1H-indazol-3-yl)pyridin-2(1H)-one] | ≤ 0.1 µM | ≤ 1 µM
13 | CO[C@H]1C[C@@H](Nc2ccnc(Cn3ccc(-c4nn(-c5ccc(C(F)(F)F)cc5)c5ccccc45)cc3=O)n2)C1 [Compound 90, 1-((4-(((1s,3s)-3-methoxycyclobutyl)amino)pyrimidin-2-yl)methyl)-4-(1-(4-(trifluoromethyl)phenyl)-1H-indazol-3-yl)pyridin-2(1H)-one] | 0.1 to 1 µM | ≤ 1 µM
14 | CO[C@H]1C[C@H](Nc2ccnc(Cn3ccc(-c4nn(-c5ccc(C(F)(F)F)cc5)c5ccccc45)cc3=O)n2)C1 [Compound 91, 1-((4-(((1r,3r)-3-methoxycyclobutyl)amino)pyrimidin-2-yl)methyl)-4-(1-(4-(trifluoromethyl)phenyl)-1H-indazol-3-yl)pyridin-2(1H)-one] | ≤ 0.1 µM | ≤ 1 µM

Continued, in another order:

Row | IC50 [1] | Structure (SMILES) | IC50 (MSTO-211H cells)
15 | ≤ 0.1 µM | CNc1nccc(Cn2ccc(-c3nn(-c4ccc(C(F)(F)F)cc4)c4ccccc34)cc2=O)n1 [Compound 92, 1-((2-(methylamino)pyrimidin-4-yl)methyl)-4-(1-(4-(trifluoromethyl)phenyl)-1H-indazol-3-yl)pyridin-2(1H)-one] | ≤ 1 µM
16 | ≤ 0.1 µM | O=c1cc(-c2nn(-c3ccc(C(F)(F)F)cc3)c3ccccc23)ccn1Cc1ccnc(OCCO)n1 [Compound 93, 1-((2-(2-hydroxyethoxy)pyrimidin-4-yl)methyl)-4-(1-(4-(trifluoromethyl)phenyl)-1H-indazol-3-yl)pyridin-2(1H)-one] | ≤ 1 µM
17 | ≤ 0.1 µM | CN(CCO)c1nccc(Cn2ccc(-c3nn(-c4ccc(C(F)(F)F)cc4)c4ccccc34)cc2=O)n1 [Compound 94, 1-((2-((2-hydroxyethyl)(methyl)amino)pyrimidin-4-yl)methyl)-4-(1-(4-(trifluoromethyl)phenyl)-1H-indazol-3-yl)pyridin-2(1H)-one] | ≤ 1 µM
18 | ≤ 0.1 µM | O=c1cc(-c2nn(-c3ccc(C(F)(F)F)cc3)c3ccccc23)ccn1Cc1ccnc(N2CC(O)C2)n1 [Compound 95, 1-((2-(3-hydroxyazetidin-1-yl)pyrimidin-4-yl)methyl)-4-(1-(4-(trifluoromethyl)phenyl)-1H-indazol-3-yl)pyridin-2(1H)-one] | ≤ 1 µM
19 | ≤ 0.1 µM | Cn1nc(Cn2ccc(-c3nn(-c4ccc(C(F)(F)F)cc4)c4ccccc34)cc2=O)ccc1=O [Compound 96, 2-methyl-6-((2-oxo-4-(1-(4-(trifluoromethyl)phenyl)-1H-indazol-3-yl)pyridin-1(2H)-yl)methyl)pyridazin-3(2H)-one] | 1 to 10 µM
20 | ≤ 0.1 µM | CNc1nccc(Cn2ccc(-c3nn(-c4ccc(C(F)(F)F)cc4)c4ncccc34)cc2=O)n1 [Compound 97, 1-((2-(methylamino)pyrimidin-4-yl)methyl)-4-(1-(4-(trifluoromethyl)phenyl)-1H-pyrazolo[3,4-b]pyridin-3-yl)pyridin-2(1H)-one] | ≤ 1 µM
21 | ≤ 0.1 µM | CNc1cc(Cn2ccc(-c3nn(-c4ccc(C(F)(F)F)cc4)c4ncccc34)cc2=O)ncn1 [Compound 98, 1-((6-(methylamino)pyrimidin-4-yl)methyl)-4-(1-(4-(trifluoromethyl)phenyl)-1H-pyrazolo[3,4-b]pyridin-3-yl)pyridin-2(1H)-one] | ≤ 1 µM
